Experimental findings from patent publication US9556179B2 (BRISTOL-MYERS SQUIBB COMPANY, priority 2012, dated 2017) are described below.

In one assay the target is CK1δ (Homo sapiens (Human), UniProt P48730). Description: CK1δ kinase assay (Caliper LABCHIP electrophoretic separation of fluoresceinated peptide substrate and product). Particulars: 200 pM enzyme, 50 μM ATP, 22 hours at room temperature. In kind it is biochemical. Summed up:
(§1)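 Incubated for twenty-two hours at ambient temperature, then quenched with EDTA and analyzed by electrophoretic separation of unphosphorylated and phosphorylated peptide.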

For another assay, the target named is CK1ε (Homo sapiens (Human), UniProt P49674). Briefly: CK1ε kinase assay (Caliper LABCHIP electrophoretic separation of fluoresceinated peptide substrate and product). Conditions: 200 pM enzyme, 50 μM ATP, 22 hours at room temperature. In kind it is biochemical. Put shortly:
as §1

Sequence of CK1δ (P48730 whole entry): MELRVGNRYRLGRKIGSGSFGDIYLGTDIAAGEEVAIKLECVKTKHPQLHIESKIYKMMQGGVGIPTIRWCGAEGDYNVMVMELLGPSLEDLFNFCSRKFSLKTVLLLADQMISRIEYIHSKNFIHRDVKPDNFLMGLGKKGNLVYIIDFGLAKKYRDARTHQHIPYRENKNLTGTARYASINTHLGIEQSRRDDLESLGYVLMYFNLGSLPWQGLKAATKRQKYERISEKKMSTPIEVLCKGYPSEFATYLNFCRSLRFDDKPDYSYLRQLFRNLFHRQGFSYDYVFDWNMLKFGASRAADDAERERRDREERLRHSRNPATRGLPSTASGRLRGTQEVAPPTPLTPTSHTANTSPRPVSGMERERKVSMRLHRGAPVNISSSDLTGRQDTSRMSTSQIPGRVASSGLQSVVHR
Sequence of CK1ε (P49674 whole entry): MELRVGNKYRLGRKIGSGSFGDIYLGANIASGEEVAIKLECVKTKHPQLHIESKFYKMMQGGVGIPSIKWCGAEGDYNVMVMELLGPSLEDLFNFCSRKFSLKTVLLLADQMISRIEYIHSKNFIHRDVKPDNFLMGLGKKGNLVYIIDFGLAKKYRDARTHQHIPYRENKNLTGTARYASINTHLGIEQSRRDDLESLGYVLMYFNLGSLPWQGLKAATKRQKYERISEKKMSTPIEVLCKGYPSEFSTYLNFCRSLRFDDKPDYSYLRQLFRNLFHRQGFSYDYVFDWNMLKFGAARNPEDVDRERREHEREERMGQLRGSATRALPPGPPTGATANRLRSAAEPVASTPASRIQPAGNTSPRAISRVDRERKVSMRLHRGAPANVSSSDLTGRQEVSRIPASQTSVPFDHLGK

As for `O=C(Nc1cn2nc(-c3c(-c4ccc(F)cc4)ncn3CC3CC(F)(F)C3)ccc2n1)c1ccnc(F)c1` [Compound 249, N-(6-(1-((3,3-difluorocyclobutyl)methyl)-4-(4-fluorophenyl)-1H-imidazol-5-yl)imidazo[1,2-b]pyridazin-2-yl)-2-fluoroiso-nicotinamide], the IC50 was determined as 0.371 nM at CK1δ and 1.1 nM at CK1ε.
The matching figures for `O=C(Nc1cn2nc(-c3c(-c4ccc(F)cc4)ncn3CC(=O)N3CCCC3)ccc2n1)c1ccnc(F)c1` [Compound 250, 2-fluoro-N-(6-(4-(4-fluorophenyl)-1-(2-oxo-2-(1-pyrrolidinyl)ethyl)-1H-imidazol-5-yl)imidazo[1,2-b]pyridazin-2-yl)isonicotinamide]: 0.292 nM and 8.38 nM.
The matching figures for `O=C(Nc1cn2nc(-c3c(-c4ccc(F)cc4)ncn3CCN3CCC(F)(F)CC3)ccc2n1)c1ccnc(F)c1` [Compound 251, N-(6-(1-(2-(4,4-difluoro-1-piperi-dinyl)ethyl)-4-(4-fluorophenyl)-1H-imidazol-5-yl)imidazo[1,2-b]pyridazin-2-yl)-2-fluoroiso-nicotinamide]: 0.385 nM and 5.38 nM.
Taken in the same sequence, the figures for `O=C(Nc1cn2nc(-c3c(-c4ccc(F)cc4)ncn3CCOCC(F)(F)F)ccc2n1)c1ccnc(F)c1` [Compound 252, 2-fluoro-N-(6-(4-(4-fluorophenyl)-1-(2-(2,2,2-trifluoroethoxy)ethyl)-1H-imidazol-5-yl)imidazo[1,2-b]pyridazin-2-yl)isonicotinamide] were 0.347 nM and 2.51 nM.
On to `Cn1cnc(Cn2cnc(-c3ccc(F)cc3)c2-c2ccc3nc(NC(=O)c4ccnc(F)c4)cn3n2)c1` [Compound 253, 2-fluoro-N-(6-(4-(4-fluorophenyl)-1-((1-methyl-1H-imidazol-4-yl)methyl)-1H-imidazol-5-yl)imidazo[1,2-b]pyridazin-2-yl) isonicotinamide], for which the values for the IC50 at CK1δ and against CK1ε were 1.15 nM and 18 nM, respectively.
For the compound `O=C(Nc1cn2nc(-c3c(-c4ccc(F)cc4)ncn3CCn3cccn3)ccc2n1)c1ccnc(F)c1` [Compound 254, 2-fluoro-N-(6-(4-(4-fluorophenyl)-1-(2-(1H-pyrazol-1-yl)ethyl)-1H-imidazol-5-yl)imidazo[1,2-b]pyridazin-2-yl)isonicotinamide], the half-inhibitory concentration (IC50) came out at 1.12 nM on CK1δ and 18.7 nM on CK1ε.
The matching figures for `O=C(Nc1cn2nc(-c3c(-c4ccc(F)cc4)ncn3CCc3c[nH]cn3)ccc2n1)c1ccnc(F)c1` [Compound 255, 2-fluoro-N-(6-(4-(4-fluorophenyl)-1-(2-(1H-imidazol-4-yl)ethyl)-1H-imidazol-5-yl)imidazo[1,2-b]pyridazin-2-yl)isonicotinamide]: 0.386 nM and 2.45 nM.
Taken in the same sequence, the figures for `CC(C)(C)C1CCC(n2cnc(-c3ccc(F)cc3)c2-c2ccc3nc(NC(=O)c4ccnc(F)c4)cn3n2)CC1` (stereo not shown) [Compound 256, N-(6-(1-(4-tert-butylcyclohexyl)-4-(4-fluorophenyl)-1H-imidazol-5-yl)imidazo[1,2-b]pyridazin-2-yl)-2-fluoroisonicotinamide] were 10.2 nM and 230 nM.
Taken in the same sequence, the figures for `O=C(Nc1cn2nc(-c3c(-c4ccc(F)cc4)ncn3C3CCCCC3)ccc2n1)c1ccnc(F)c1` [Compound 257, N-(6-(1-cyclohexyl-4-(4-fluoro-phenyl)-1H-imidazol-5-yl)imidazo[1,2-b]pyridazin-2-yl)-2-fluoroisonicotinamide] were 0.325 nM and 2.29 nM.
For the compound `CC(C)(C)Cn1cnc(-c2ccc(F)cc2)c1-c1ccc2nc(NC(=O)c3ccnc(F)c3)cn2n1` [Compound 258, N-(6-(1-(2,2-dimethylpropyl)-4-(4-fluorophenyl)-1H-imidazol-5-yl)imidazo[1,2-b]pyridazin-2-yl)-2-fluoroisonicotinamide], the IC50 against CK1δ was determined as 0.393 nM; at CK1ε, 6.56 nM.
With `Cn1cc(Cn2cnc(-c3ccc(F)cc3)c2-c2ccc3nc(NC(=O)c4ccnc(F)c4)cn3n2)cn1` [Compound 259, 2-fluoro-N-(6-(4-(4-fluorophenyl)-1-((1-methyl-1H-pyrazol-4-yl)methyl)-1H-imidazol-5-yl)imidazo[1,2-b]pyridazin-2-yl) isonicotinamide], the results for the IC50 against CK1δ and on CK1ε were 0.314 nM and 3.17 nM, respectively.
In the case of `O=C(Nc1cn2nc(-c3c(-c4ccc(F)cc4)ncn3CCN3CCCCC3=O)ccc2n1)c1ccnc(F)c1` [Compound 261, 2-fluoro-N-(6-(4-(4-fluorophenyl)-1-(2-(2-oxopiperidin-1-yl)ethyl)-1H-imidazol-5-yl)imidazo[1,2-b]pyridazin-2-yl)isonicotinamide], the IC50 was 0.403 nM at CK1δ and 14.8 nM on CK1ε.
The matching figures for `O=C(Nc1cn2nc(-c3c(-c4ccc(F)cc4)ncn3C3CC(F)(F)C3)ccc2n1)c1ccnc(F)c1` [Compound 262, N-(6-(1-(3,3-difluorocyclobutyl)-4-(4-fluorophenyl)-1H-imidazol-5-yl)imidazo[1,2-b]pyridazin-2-yl)-2-fluoroisonicotinamide]: 0.331 nM and 3.48 nM.
With `O=C(Nc1cn2nc(-c3c(-c4ccc(F)cc4)ncn3CCCn3ccnc3)ccc2n1)c1ccnc(F)c1` [Compound 263, 2-fluoro-N-(6-(4-(4-fluorophenyl)-1-(3-(1H-imidazol-1-yl)propyl)-1H-imidazol-5-yl)imidazo[1,2-b]pyridazin-2-yl)isonicotinamide], the figures for the IC50 against CK1δ and on CK1ε were 0.436 nM and 5.4 nM, respectively.
Consider `CC(C)(C)c1cc(Cn2cnc(-c3ccc(F)cc3)c2-c2ccc3nc(NC(=O)c4ccnc(F)c4)cn3n2)n[nH]1` [Compound 264], for which the values for the IC50 against CK1δ and on CK1ε were 41.5 nM and 156 nM, respectively.
Taken in the same sequence, the figures for `O=C(Nc1cn2nc(-c3c(-c4ccc(F)cc4)ncn3CCc3cn[nH]c3)ccc2n1)c1ccnc(F)c1` [Compound 265] were 0.147 nM and 0.719 nM.
For the compound `O=C(Nc1cn2nc(-c3c(-c4ccc(F)cc4)ncn3CC(=O)N3CCOCC3)ccc2n1)c1ccnc(F)c1` [Compound 266, 2-fluoro-N-(6-(4-(4-fluorophenyl)-1-(2-(4-morpholinyl)-2-oxoethyl)-1H-imidazol-5-yl)imidazo[1,2-b]pyridazin-2-yl)isonicotinamide], the figures for the IC50 at CK1δ and at CK1ε were 0.416 nM and 14.1 nM, respectively.
Taken in the same sequence, the figures for `O=C1CN(CCn2cnc(-c3ccc(F)cc3)c2-c2ccc3nc(NC(=O)c4ccnc(F)c4)cn3n2)CCN1` [Compound 267, 2-fluoro-N-(6-(4-(4-fluorophenyl)-1-(2-(3-oxo-1-piperazinyl)ethyl)-1H-imidazol-5-yl)imidazo[1,2-b]pyridazin-2-yl)isonicotinamide] were 0.287 nM and 1.77 nM.
Take `NC(=O)Cn1cnc(-c2ccc(F)cc2)c1-c1ccc2nc(NC(=O)c3ccnc(F)c3)cn2n1` [Compound 268, N-(6-(1-(2-amino-2-oxoethyl)-4-(4-fluorophenyl)-1H-imidazol-5-yl)imidazo[1,2-b]pyridazin-2-yl)-2-fluoroisonicotinamide]: the IC50 at CK1δ is 0.419 nM; at CK1ε it was 7.57 nM.
Taken in the same sequence, the figures for `Cn1ccc(Cn2cnc(-c3ccc(F)cc3)c2-c2ccc3nc(NC(=O)c4ccnc(F)c4)cn3n2)n1` [Compound 269, 2-fluoro-N-(6-(4-(4-fluorophenyl)-1-((1-methyl-1H-pyrazol-3-yl)methyl)-1H-imidazol-5-yl)imidazo[1,2-b]pyridazin-2-yl) isonicotinamide] were 1.08 nM and 9.39 nM.

As usually defined, the IC50 is the point on the concentration scale where inhibition reaches its midpoint. Low values mean greater potency in that assay, high ones weaker potency in that assay.
